pIC50: −log10 of the molar value.

The target of test [1] is T1, Type-2 angiotensin II receptor (Rattus norvegicus, UniProt P35351).
T1 sequence (P35351 whole entry): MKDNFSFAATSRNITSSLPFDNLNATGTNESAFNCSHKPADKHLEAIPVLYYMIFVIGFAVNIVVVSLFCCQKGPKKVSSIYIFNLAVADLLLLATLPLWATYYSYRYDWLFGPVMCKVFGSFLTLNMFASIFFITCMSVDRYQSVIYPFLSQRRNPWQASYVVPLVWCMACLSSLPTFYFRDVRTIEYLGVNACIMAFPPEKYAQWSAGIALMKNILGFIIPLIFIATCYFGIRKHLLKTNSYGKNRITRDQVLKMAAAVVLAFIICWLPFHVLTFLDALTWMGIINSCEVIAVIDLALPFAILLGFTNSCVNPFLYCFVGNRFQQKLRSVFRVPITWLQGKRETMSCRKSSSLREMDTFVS
Put plainly: Inhibition of [125I]-Sar1-Ile8-Ang II binding to rat midbrain Angiotensin II receptor type 2.

Test [2] deals with T2, Type-1 angiotensin II receptor (Oryctolagus cuniculus, UniProt P34976).
T2 sequence (P34976 whole entry): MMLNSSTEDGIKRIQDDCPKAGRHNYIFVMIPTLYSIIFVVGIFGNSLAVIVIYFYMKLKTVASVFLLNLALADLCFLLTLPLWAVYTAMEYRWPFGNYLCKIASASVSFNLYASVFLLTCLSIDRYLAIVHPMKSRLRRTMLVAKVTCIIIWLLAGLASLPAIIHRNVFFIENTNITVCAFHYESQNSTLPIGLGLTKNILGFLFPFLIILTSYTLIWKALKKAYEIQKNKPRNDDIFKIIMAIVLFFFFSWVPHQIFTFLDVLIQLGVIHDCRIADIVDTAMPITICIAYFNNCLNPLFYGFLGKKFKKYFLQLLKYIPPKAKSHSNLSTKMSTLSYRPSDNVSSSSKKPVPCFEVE
Put plainly: Inhibition of [125I]-Sar1-Ile8-Ang II binding to Angiotensin II receptor type 1 from rabbit aorta.

For `CCCc1nc2ccc3cc2c(=O)n1Cc1ccc(cc1)-c1ccccc1S(=O)(=O)NC(=O)CCCCCN3C(=O)OCc1ccccc1`, the pIC50 in test [1] was 5.40; in test [2] it was 7.64.
Turning to `CCCc1nc2ccc(NC(=O)NC(C)C)cc2c(=O)n1Cc1ccc(-c2ccccc2S(=O)(=O)NC(C)=O)cc1`, the pIC50 in test [1] is 6.20; in test [2], 8.06.
As for `CCCc1nc2ccc(NC(=O)c3ccccc3)cc2c(=O)n1Cc1ccc(-c2ccccc2-c2nnn[nH]2)cc1`, the pIC50 is 5.52 in test [1] and 9.40 in test [2].
Regarding `CCCc1ccc2c(c1)-c1ccc(cc1)Cn1c(CCC)nc3ccc(cc3c1=O)N(C(=O)OCc1ccccc1)CCCCCCCC(=O)NS2(=O)=O`, the pIC50 in test [1] is 7.70; in test [2], 7.52.
Taken in the same sequence, the figures for `CCCc1nc2ccc(NC(=O)NC(C)C)cc2c(=O)n1Cc1ccc(-c2ccccc2S(=O)(=O)NC(=O)c2ccccc2)cc1` were 7.74 and 9.05.
Taken in the same sequence, the figures for `CCCCCN(C(=O)c1ccccc1)c1ccc2nc(CCC)n(Cc3ccc(-c4ccccc4S(=O)(=O)NC(=O)c4ccccc4)cc3)c(=O)c2c1` were 6.46 and 7.96.
Taken in the same sequence, the figures for `CCCc1nc2ccc3cc2c(=O)n1Cc1ccc(cc1)-c1ccccc1S(=O)(=O)NC(=O)CCCCCCCN3` were 6.70 and 9.52.
`CCCc1ccc2c(c1)-c1ccc(cc1)Cn1c(CCC)nc3ccc(cc3c1=O)NCCCCCCCC(=O)NS2(=O)=O`: the pIC50 is 7.62 in test [1] and 8.41 in test [2].
Taken in the same sequence, the figures for `CCCc1nc2ccc3cc2c(=O)n1Cc1ccc(cc1)-c1ccccc1S(=O)(=O)NC(=O)CCCCCCCN3C(=O)c1ccccc1` were 7.31 and 8.89.
Turning to `CCCc1nc2ccc3cc2c(=O)n1Cc1ccc(cc1)-c1ccccc1S(=O)(=O)NC(=O)CCCCCCCN3C(=O)OCc1ccccc1`, the pIC50 in test [1] is 7.12; in test [2], 8.82.

For the origin of these results see ChEMBL document CHEMBL1129015, “The design, binding affinity prediction and synthesis of macrocyclic angiotensin II AT1 and AT2 receptor antagonists” (Bioorg Med Chem Lett, 1996).
